Experimental findings from US12421222B2 (AUGUSTINE THERAPEUTICS, priority 2021, dated 2025) are described below.

pIC50: −log10 of the molar value. A value given as a limit tells only on which side of the number the result lay.

The experiment concerns acetylated tubulin (Lys40) in HeLa cells. In words: Acetylated α-tubulin measurement in vitro (immunocytochemistry). In kind it is cell-based. To be noted: Homo sapiens, 6 hours incubation, acetylated tubulin (Lys40) by immunocytochemistry, read-out: IC50 (Tubulin deacetylation). The procedure: HeLa cells were cultured in UltraCulture serum-free medium (Lonza) supplemented with 2 mM glutamine (Lonza). Assays were performed at 96-well or 384-well format, differences in assay protocols are detailed in Table 6. Cells per well were plated and incubated overnight at 37° C. overnight in a humidified atmosphere containing 5% CO2. Cell density and seeding volumes are detailed in Table 6. Compounds (dissolved in 100% DMSO) or DMSO (vehicle) were added manually by diluting them in culture medium at 10× final assay concentration and adding 10 μL to cells (96-well protocol). Alternatively, 50 nL compound was added directly to the cell culture using the Echo650 (Labcyte) (384-well protocol). In this assay, the final assay concentration of DMSO is 0.1%-0.4%. Trichostatin A (TSA) was used as a positive control. Cells were incubated with compounds at 37° C. in a humidified atmosphere containing 5% CO2 for 6 hours. Levels of acetylated tubulin (Lys40) were assessed by immunocytochemistry using target-specific antibodies. Cells were fixed with 4% PFA at RT as detailed in Table 6. After 2-3 wash steps with PBS, cells were permeabilized with 0.5% Triton in PBS at RT for 10 minutes followed by 1-2 washes with PBS. To avoid non-specific antibody staining, cells were blocked with 3% BSA in PBS at room temperature for 1 hour. […] Cells were washed 2-3 times with PBS and labelled for 1 h at RT with goat anti-mouse conjugated with Alexa 647 (Thermofisher) and goat anti-rabbit conjugated with Alexa 555 (Thermofisher) secondary antibodies, diluted in 1% BSA to a final concentration of 1:1000. Simultaneously, nuclei were stained with 1:10000-1:15000 Hoechst (Thermofisher). Incubation time and temperature of the primary antibodies are detailed in Table 6. Cells were washed 2-3 times with PBS and they were imaged with the Operetta CLS or Opera Phenix (PerkinElmer). Imaging is further detailed in Table 6. For imaging analysis, the Harmony analysis software (PerkinElmer) was used. Cytoplasmic (defined by total α-tubulin staining) intensities per well were used for α-tubulin (acetylated and total) quantification. Intensities were measured per cell and then averaged per well. Mean intensity levels of acetylated tubulin were normalized to the mean intensity levels of total tubulin. The changes in acetylated tubulin were normalized for each plate using GraphPad Prism software: tubulin acetylation in vehicle (DMSO)-treated cells were set to 0% while tubulin acetylation in TSA-treated cells were set to 100%. EC50 values were calculated using the log(inhibitor) vs. response—Variable slope (four parameters) nonlinear regression in GraphPad Prism software.

With `CC(NC(=O)CO)c1ccc(C(=O)CSc2nc3cnc(C(F)(F)F)cc3o2)s1` (stereo in doubt) [Example 129, (S)-2-hydroxy-N-(1-(5-(2-((6-(trifluoromethyl)oxazolo[4,5-c]pyridin-2-yl)thio)acetyl)thiophen-2-yl)ethyl)acetamide], the pIC50 was 6.30 to 7.00. On to `O=C(CSc1nc(C(F)(F)F)nc2ncccc12)c1ccc(CN2CCC(O)C2=O)s1` (stereo in doubt) [Example 155, (S)-3-hydroxy-1-((5-(2-((2-(trifluoromethyl)pyrido[2,3-d]pyrimidin-4-yl)thio)acetyl)thiophen-2-yl)methyl)pyrrolidin-2-one], for which the pIC50 was at least 7.00. Take `O=C(CSc1nc(C(F)(F)F)nc2ncccc12)c1ccc(CN2CCC(O)C2=O)s1` (stereo in doubt) [Example 156, (R)-3-hydroxy-1-((5-(2-((2-(trifluoromethyl)pyrido[2,3-d]pyrimidin-4-yl)thio)acetyl)thiophen-2-yl)methyl)pyrrolidin-2-one]: the pIC50 was at least 7.00. As for `Cc1nc(SCC(=O)c2ccc(CNC(=O)C(C)(C)C)s2)c2cnn(C)c2n1` [Example 5, N-((5-(2-((1,6-dimethyl-1H-pyrazolo[3,4-d]pyrimidin-4-yl)thio)acetyl)thiophen-2-yl)methyl)pivalamide], the pIC50 is below 5.48. As for `Cc1nc(SCC(=O)c2ccc(CNC(=O)C(C)(C)C)s2)c2cccnc2n1` [Example 7, N-((5-(2-((2-methylpyrido[2,3-d]pyrimidin-4-yl)thio)acetyl)thiophen-2-yl)methyl)pivalamide], the pIC50 was 6.30 to 7.00.

For the compound `Cc1nc(SCC(=O)c2ccc(CNC(=O)C(C)(C)C)s2)c2ccc(Cl)cc2n1` [Example 8, N-((5-(2-((7-chloro-2-methylquinazolin-4-yl)thio)acetyl)thiophen-2-yl)methyl)pivalamide], the negative-log IC50 (pIC50) is below 5.48.

Take `Cc1nc(SCC(=O)c2ccc(CNC(=O)C(C)(C)C)s2)c2cc(F)ccc2n1` [Example 9, N-((5-(2-((6-fluoro-2-methylquinazolin-4-yl)thio)acetyl)thiophen-2-yl)methyl)pivalamide]: the pIC50 was 5.48 to 6.00. In the case of `Cc1nc(SCC(=O)c2ccc(CNC(=O)C(C)(C)C)s2)c2ccc(F)cc2n1` [Example 10, N-((5-(2-((7-fluoro-2-methylquinazolin-4-yl)thio)acetyl)thiophen-2-yl)methyl)pivalamide], the negative logarithm of the IC50 (pIC50) was 5.48 to 6.00.

In the case of `COc1ccc2c(SCC(=O)c3ccc(CNC(=O)C(C)(C)C)s3)nc(C)nc2c1` [Example 12, N-((5-(2-((7-methoxy-2-methylquinazolin-4-yl)thio)acetyl)thiophen-2-yl)methyl)pivalamide], the negative logarithm of the IC50 (pIC50) is 5.48 to 6.00. As to `CN(C)c1nc(SCC(=O)c2ccc(CNC(=O)C(C)(C)C)s2)c2ccccc2n1` [Example 16, N-((5-(2-((2-(dimethylamino)quinazolin-4-yl)thio)acetyl)thiophen-2-yl)methyl)pivalamide], the pIC50 was 5.48 to 6.00.

For the compound `COc1ccc2nc(C)nc(SCC(=O)c3ccc(CNC(=O)C(C)(C)C)s3)c2c1` [Example 17, N-((5-(2-((6-methoxy-2-methylquinazolin-4-yl)thio)acetyl)thiophen-2-yl)methyl)pivalamide], the pIC50 was 6.00 to 6.30.

For `Cc1nc(SCC(=O)c2ccc(CNC(=O)C(C)(C)C)s2)c2ncccc2n1` [Example 18, N-((5-(2-((2-methylpyrido[3,2-d]pyrimidin-4-yl)thio)acetyl)thiophen-2-yl)methyl)pivalamide], the pIC50 was 5.48 to 6.00. On to `CC(C)(C)C(=O)NCc1ccc(C(=O)CSc2nc(C(F)F)nc3ccccc23)s1` [Example 19, N-((5-(2-((2-(difluoromethyl)quinazolin-4-yl)thio)acetyl)thiophen-2-yl)methyl)pivalamide], for which the negative-log IC50 (pIC50) was 5.48 to 6.00. With `Cn1ncc2c(SCC(=O)c3ccc(CNC(=O)C(C)(C)C)s3)nc(C(F)(F)F)nc21` [Example 20, N-((5-(2-((1-methyl-6-(trifluoromethyl)-1H-pyrazolo[3,4-d]pyrimidin-4-yl)thio)acetyl)thiophen-2-yl)methyl)pivalamide], the pIC50 was 6.30 to 7.00. As for `Cn1ncc2c(SCC(=O)c3ccc(CNC(=O)C(C)(C)C)s3)nc(C(F)F)nc21` [Example 21, N-((5-(2-((6-(difluoromethyl)-1-methyl-1H-pyrazolo[3,4-d]pyrimidin-4-yl)thio)acetyl)thiophen-2-yl)methyl)pivalamide], the pIC50 was 5.48 to 6.00. Turning to `Cn1cc2c(SCC(=O)c3ccc(CNC(=O)C(C)(C)C)s3)nc(C(F)(F)F)nc2n1` [Example 22, N-((5-(2-((2-methyl-6-(trifluoromethyl)-2H-pyrazolo[3,4-d]pyrimidin-4-yl)thio)acetyl)thiophen-2-yl)methyl)pivalamide], the pIC50 was 6.30 to 7.00. Turning to `Cc1ccc2oc(SCC(=O)c3ccc(CNC(=O)C(C)(C)C)s3)nc2n1` [Example 23, N-((5-(2-((5-methyloxazolo[4,5-b]pyridine-2-yl)thio)acetyl)thiophen-2-yl)methyl)pivalamide], the pIC50 is 6.00 to 6.30.

Regarding `Cn1ncc2c(SCC(=O)c3ccc(CN4CCCC4=O)s3)ncnc21` [Example 25, 1-((5-(2-((1-methyl-1H-pyrazolo[3,4-d]pyrimidin-4-yl)thio)acetyl)thiophen-2-yl)methyl)pyrrolidin-2-one], the pIC50 was below 5.48.

Take `Cn1ncc2c(SCC(=O)c3ncc(CNC(=O)C(C)(C)C)s3)ncnc21` [Example 27, N-((2-(2-((1-methyl-1H-pyrazolo[3,4-d]pyrimidin-4-yl)thio)acetyl)thiazol-5-yl)methyl)pivalamide]: the pIC50 was 5.48 to 6.00. Regarding `Cn1ncc2c(SCC(=O)c3cc(F)c(CNC(=O)C(C)(C)C)s3)ncnc21` [Example 28, N-((3-fluoro-5-(2-((1-methyl-1H-pyrazolo[3,4-d]pyrimidin-4-yl)thio)acetyl)thiophen-2-yl)methyl)pivalamide], the pIC50 was 5.48 to 6.00. With `Cn1ncc2c(SCC(=O)c3ccc(CNC(=O)c4ccccc4)s3)ncnc21` [Example 30, N-((5-(2-((1-methyl-1H-pyrazolo[3,4-d]pyrimidin-4-yl)thio)acetyl)thiophen-2-yl)methyl)benzamide], the pIC50 is 5.48 to 6.00. On to `Cn1ncc2c(SCC(=O)c3ccc(CNC(=O)C4CC4)s3)ncnc21` [Example 31, N-((5-(2-((1-methyl-1H-pyrazolo[3,4-d]pyrimidin-4-yl)thio)acetyl)thiophen-2-yl)methyl)cyclopropanecarboxamide], for which the pIC50 is 5.48 to 6.00. Next, `CN(Cc1ccc(C(=O)CSc2ncnc3c2cnn3C)s1)C(=O)C1CC1` [Example 34, N-methyl-N-((5-(2-((1-methyl-1H-pyrazolo[3,4-d]pyrimidin-4-yl)thio)acetyl)thiophen-2-yl)methyl)cyclopropanecarboxamide]: 5.48 to 6.00. In the case of `O=C(CSc1nc(C(F)(F)F)nc2ccccc12)c1ccc(CCNC(=O)C2CC2)s1` [Example 36, N-(2-(5-(2-((2-(trifluoromethyl)quinazolin-4-yl)thio)acetyl)thiophen-2-yl)ethyl)cyclopropanecarboxamide], the negative-log IC50 (pIC50) was below 5.48. Regarding `CC(C)(C)C(=O)NCc1ccc(C(=O)CSc2nc(C(F)(F)F)nc3ccccc23)s1` [Example 38, N-((5-(2-((2-(trifluoromethyl)quinazolin-4-yl)thio)acetyl)thiophen-2-yl)methyl)pivalamide], the pIC50 was 6.00 to 6.30. In the case of `COc1ccc2nc(C)nc(SCC(=O)c3ccc(CNC(=O)C4CC4(F)F)s3)c2c1` (stereo not shown) [Example 39, 2,2-difluoro-N-((5-(2-((6-methoxy-2-methylquinazolin-4-yl)thio)acetyl)thiophen-2-yl)methyl)cyclopropane-1-carboxamide], the pIC50 is 6.00 to 6.30. The value for `COc1ccc2nc(C)nc(SCC(=O)c3ccc(CNC(=O)C(F)(F)C(F)(F)F)s3)c2c1` [Example 40, 2,2,3,3,3-pentafluoro-N-((5-(2-((6-methoxy-2-methylquinazolin-4-yl)thio)acetyl)thiophen-2-yl)methyl)propanamide] was 6.00 to 6.30; that for `Cn1cc2c(SCC(=O)c3ccc(CNC(=O)C4CC4)s3)nc(C(F)(F)F)nc2n1` [Example 41, N-((5-(2-((2-methyl-6-(trifluoromethyl)-2H-pyrazolo[3,4-d]pyrimidin-4-yl)thio)acetyl)thiophen-2-yl)methyl)cyclopropanecarboxamide] was 5.48 to 6.00.
